Test results from patent US9611223B2, “3-aryl-5-substituted-isoquinolin-1-one compounds and their therapeutic use” (INSTITUTE OF CANCER RESEARCH: ROYAL CANCER HOSPITAL (THE), priority 2013, dated 2017).
Where two headings read alike, the source gives them in different places.

Test system: SW620 cells
Test: Tumour Cell Inhibition Assay (SW620 cells)
Format: cell-based
Conditions: Homo sapiens, SW-620, 120 h, five day exposure
Description: Tumour Cell Inhibition in Colorectal Tumour Cells
In order to determine the efficacy of acute dosing of putative TNKS inhibitors, five day exposure cell viability assays were carried out. This included the sparse seeding of cells in a 96-well plate followed by continuous dosing of cells over a five day period.
Appropriate cell lines (HT55, COLO320DM and SW620) were seeded at 500 cells/well in a 96-well plate in MEM (HT55), RPMI (COLO320DM) or DMEM (SW620) supplemented with FBS. After overnight incubation, cells were treated with the appropriate putative TNKS inhibitor in 6 or 10 concentrations ranging from 0 μM to 10 μM at 0.2% final DMSO concentration in appropriate media supplemented with 10% or 0.5% FBS. Dosages were carried out in triplicate. Termination of the assay and measurement of cell viability was achieved by the use of Cell Titre Glo reagent and luminescence measurement on an appropriate plate reader.
Dose response curves used to determine SF50 values were Log transformed and analysed by non-linear regression analysis (variable slope) using Prism (GraphPad Software, Inc).

An IC50 (read-out: cell inhibitory SF50 (SW620)) of 3000 nM and an IC50 (replicate, read-out: cell inhibitory SF50 (SW620), replicate) of 1700 nM were found for `CN(C)C1CCN(Cc2ccc(-c3cc4c(C#N)cccc4c(=O)[nH]3)cc2)CC1` [IQ-012] in this work.
